In patent US11510902B2, “Method for preventing or treating non-alcoholic fatty liver disease by antrodins” (Simpson Biotech Co., Ltd., priority 2019, dated 2022):

How the values were obtained:
Hep G2 cells [1] = test: Free fatty acids (FFA)-induced lipid accumulation and Oil Red determination; format: cell-based, Human; details: Oil Red; for attenuated lipid accumulation in the cells: vs control group; for cellular lipid accumulation as compared with the control group: FIG. 2
Procedure: (§1) Human hepatoma cell line Hep G2 was cultured in Dulbecco's modified Eagle's medium high glucose (DMEM-HG) containing 10% fetal bovine serum, 100 U/ml penicillin and […] streptomycin at 37° C. under 5% CO2 in an incubator.
1×10^5 Hep G2 cells were seeded in a 96-well plate and incubated with serum-free cellular medium containing 1% BSA for 24 hrs. To induce lipid accumulation, the above cells were seeded in a mixture of 0.33 mM palmitic acid and 0.66 mM oleic acid for 24 hrs, which were dissolved in serum-free medium with or without Antrodin. After lipid accumulation and Antrodin treatment, cells were washed with PBS and then fixed by 4% paraformaldehyde for 15 mins at room temperature. The fixed cells were washed with PBS for 5 mins, and then rinsed with 60% isopropanol twice; followed by incubation with 1 ml Oil Red kit for 10 mins. For quantitative analysis of cellular lipids, dye in the cellular lipids were extracted with 0.5 ml of isopropanol, and then measured at 490 nm.

Hep G2 cells [2] = test: Cell viability test (alamar blue); format: cell-based, Human; details: concentration less than 100 μg/ml, 72 hrs
Procedure: as §1
Hepasim® was a mixture from Antrodia cinnamomea mycelia, which was prepared from water or organic solvent extract of Antrodia cinnamomea mycelia. The extract of Antrodia cinnamomea mycelia comprised Antrodin B-E. 5×10^3 Hep G2 cells were seeded in a 96-well plate for 24 hrs, and then incubated with different concentrations of Hepasim®, Antrodin B, Antrodin C and Antrodin D for 72 hrs. After treatment, cells were incubated with alamar blue (10%, w/v) for 3 hrs, and then was read at […]. Cell viability was calculated by [(OD570−OD600)test/(OD570−OD600)control]×100.

[3] = test system: C57BL/6J (B6) mice on high fat diet; test: High fat diet mice, treating process (20 weeks, dosing 11th to 20th week); format: in vivo; parameters: Malondiadehyde in liver: unit not given here; details: for body weight: 11th to 20th week, high fat diet 20 weeks; for reduction of body weight increasing rate as compared with the high fat diet group: at the end of 20 weeks; for ALT / AST / TC / TG / attenuated the increased ALT as compared with the high fat diet group / attenuated the increased AST as compared with the high fat diet group / attenuated the increased TC as compared with the high fat diet group / attenuated the increased TG as compared with the high fat diet group: serum; for ALT / AST / TC / TG / MDA level increasing rate in liver / Malondiadehyde in liver / Plasma insulin / blood glucose / liver hypertrophy / liver weight / plasma insulin level increasing rate was reduced by / Plasma insulin increasing rate / body weight increasing rate / lipid droplets in the liver, hematoxylin-eosin staining of liver sections / MDA level increasing rate was reduced by / liver appearance: pale color (phenomenon of fatty liver) / attenuated the increased ALT as compared with the high fat diet group / attenuated the increased AST as compared with the high fat diet group / attenuated the increased TC as compared with the high fat diet group / attenuated the increased TG as compared with the high fat diet group / attenuated the increased blood sugar as compared with the high fat diet group: treating process; for Plasma insulin increasing rate / body weight increasing rate: relative to control group; for lipid droplets in the liver, hematoxylin-eosin staining of liver sections: FIG. 5; for MDA level increasing rate was reduced by: liver; for liver appearance: pale color (phenomenon of fatty liver): FIG. 4
Procedure: 2.1 8-week-old male C57BL/6J (B6) mice were used, which were purchased from the National Laboratory Animal Center (Taipei, Taiwan). All animals were maintained at an animal room at a temperature of 23±2° C., and 12 hrs light/12 hrs dark cycle.
According to the “Healthy food of liver health effects assessment” (Taiwan Food and Drug Administration, Taiwan), all 8-week test mice were randomized into a control group, a high fat diet group, and test (high fat diet with different dosage of Hepasim®, Antrodin B or Antrodin C) groups. Each group contained 3-4 mice.
The control group was given 20 weeks of normal diet, and all other groups were given 20 weeks of high fat diet. […] Body weights of the mice in each group were recorded weekly. At the end of 20 weeks, all mice were sacrificed by CO2 overdose. At the time of death of the mouse, blood was collected from the heart of the mouse. To separate the serum, whole blood was centrifuged in a refrigerated centrifuge at 15,700×g at 4° C. for 5 minutes. Livers were removed from the mice, and then rinsed in ice-cold saline. Liver samples were divided for various assays and histological assessment.
Stored liver samples (0.1 g) were homogenized in 1 ml PBS, and then was centrifuged in a refrigerated centrifuge at 15,700×g at 4° C. for 5 minutes to remove pellets. The levels of aspartate aminotransferase (AST), alanine aminotransferase (ALT), total cholesterol (TC) and total triglyceride (TG) of the serum and the liver were measured by corresponding detection kits (Randox). Blood sugar in whole blood was detected by blood sugar machine (Roche). Plasma insulin was detected by Insulin mouse ELISA kit (Invitrogen). Malondialdehyde (MDA) level in liver was measured by using Lipid Peroxidation Assay Kit (Colorimetric/Fluorometric) (abcam, #ab118977). Liver samples were divided for various assays and histological assessment.
The livers were removed from the mice, and then fixed in 10% neural formalin. Liver samples were dehydrated by placing in ethanol at different concentrations (30, 50, 70, 95, 99.5%) and xylene. Finally, liver samples were embedded in paraffin section. For hematoxylin-eosin staining, the liver tissue sections were placed in xylene for 30 minutes for dewaxing, and then sequentially placed in 99.5% ethanol for 10 minutes, 90% ethanol for 5 minutes, 70% ethanol for 1 minute, 50% ethanol for 1 minute and 30% ethanol for 1 minutes for rehydration, and then soaked in distilled water for 10 minutes. To stained nuclei, the samples were soaked in hematoxylin solution for 4 minutes, and then soaked in distilled water for several minutes, followed by soaking in eosin solution for 2 minutes to stain cytoplasm, and then washed in distilled water for 10 minutes. Finally, samples were sequentially placed in 90% ethanol for 2 minutes, 99.5% ethanol for 2 minutes and xylene for 20 minutes, and then mounted by mounting medium.
All results were expressed as mean±SD. Significant differences were analyzed with two-tailed Student's t-test. P<0.05 represents the statistical difference between two groups.

[4] = "10%" Antrodin (so in the source)
[5] = "30%" Antrodin (so in the source)
[6] = treated with "10%" Antrodin (so in the source)
[7] = treated with "30%" Antrodin (so in the source)

## CC(C)=CCOc1ccc([C@H]2C(=O)N(O)C(=O)[C@@H]2CC(C)C)cc1 (relative stereo) [Antrodin D, 3R*,4S*-1-hydroxy-3-isobutyl-4-[4-(3-methyl-2-butenyloxy)phenyl]pyrrolidine-2,5-dione]
Hep G2 cells [1]; 100 μg/ml
  attenuated lipid accumulation in the cells: 18.6%
Hep G2 cells [1]
  cellular lipid accumulation as compared with the control group: significantly reduced
Hep G2 cells [2]
  cytotoxicity to Hep G2 cells: no cytotoxicity

## CC(C)=CCOc1ccc(C2=C(CC(C)C)C(=O)NC2=O)cc1 [Antrodin B, 3-isobutyl-4-[4-(3-methyl-2-butenyloxy)phenyl]-1H-pyrrol-2,5-dione]
Hep G2 cells [1]; 10 μg/ml
  attenuated lipid accumulation in the cells: 12.8%
Hep G2 cells [1]; 100 μg/ml
  attenuated lipid accumulation in the cells: 9.3%
Hep G2 cells [1]
  cellular lipid accumulation as compared with the control group: significantly reduced
[3]; 10 mg/Kg oral gavage every day
  body weight: 37.14 ± 5.18 g
[3]; 10 mg/Kg
  reduction of body weight increasing rate as compared with the high fat diet group: 14%
  ALT: 29.36 ± 6.17 U/l
  AST: 44.39 ± 7.06 U/l
  TC: 266.61 ± 25.99 mg/dL
  TG: 189.57 ± 9.35 mg/dL
  MDA level increasing rate in liver: 202.8%
  Malondiadehyde in liver: 2.15 ± 0.58
  Plasma insulin: 0.99 ± 0.41 ng/mL
  blood glucose: 367.20 ± 34.40 mg/dL
  liver hypertrophy: significantly inhibited
  liver weight: 1.39 ± 0.33 g
  plasma insulin level increasing rate was reduced by: 223.6%
  Plasma insulin increasing rate: 80%
  body weight increasing rate: 21.1%
[3]; 30 mg/Kg oral gavage every day
  body weight: 41.82 ± 2.61 g
[3]; 30 mg/Kg
  ALT: 29.38 ± 11.45 U/l
  AST: 53.64 ± 9.99 U/l
  TC: 287.73 ± 48.26 mg/dL
  TG: 187.77 ± 6.53 mg/dL
  MDA level increasing rate in liver: 97.2%
  Malondiadehyde in liver: 1.4 ± 0.56
  Plasma insulin: 1.84 ± 0.93 ng/mL
  blood glucose: 389.00 ± 41.63 mg/dL
  liver weight: 1.5 ± 0.25 g
  plasma insulin level increasing rate was reduced by: 69.1%
  Plasma insulin increasing rate: 234.5%
  body weight increasing rate: 36.3%
[3]; [4]
  lipid droplets in the liver, hematoxylin-eosin staining of liver sections: significantly attenuated
[3]; [5]
  lipid droplets in the liver, hematoxylin-eosin staining of liver sections: significantly attenuated
[3]; [6]
  MDA level increasing rate was reduced by: 24.8%
[3]; [7]
  MDA level increasing rate was reduced by: 129.6%
[3]
  liver appearance: pale color (phenomenon of fatty liver): not observed
Hep G2 cells [2]
  cytotoxicity to Hep G2 cells: no cytotoxicity

## CC(C)=CCOc1ccc(C2=C(CC(C)C)C(=O)N(O)C2=O)cc1 [Antrodin C, 3-isobutyl-4-[4-(3-methyl-2-butenyloxy)phenyl]-1H-pyrrol-1-ol-2,5-dione]
Hep G2 cells [1]; 10 μg/ml
  attenuated lipid accumulation in the cells: 20.6%
Hep G2 cells [1]; 100 μg/ml
  attenuated lipid accumulation in the cells: 24.1%
Hep G2 cells [1]
  cellular lipid accumulation as compared with the control group: significantly reduced
[3]; 10 mg/Kg oral gavage every day
  body weight: 40.06 ± 4.74 g
[3]; 10 mg/Kg
  reduction of body weight increasing rate as compared with the high fat diet group: 4.5%
  ALT: 22.99 ± 5.15 U/l
  AST: 38.17 ± 5.53 U/l
  TC: 189.36 ± 58.12 mg/dL
  TG: 179.28 ± 15.54 mg/dL
  attenuated the increased ALT as compared with the high fat diet group: ~12.3%
  attenuated the increased AST as compared with the high fat diet group: ~39.35%
  attenuated the increased TC as compared with the high fat diet group: ~66.83%
  attenuated the increased TG as compared with the high fat diet group: ~11.57%
  MDA level increasing rate in liver: 140.8%
  Malondiadehyde in liver: 1.71 ± 0.59
  Plasma insulin: 1.77 ± 0.85 ng/mL
  attenuated the increased blood sugar as compared with the high fat diet group: about 34.78%
  blood glucose: 351.80 ± 85.00 mg/dL
  liver hypertrophy: significantly inhibited
  liver weight: 1.06 ± 0.25 g
  plasma insulin level increasing rate was reduced by: 81.8%
  Plasma insulin increasing rate: 221.8%
  body weight increasing rate: 30.6%
[3]; 30 mg/Kg oral gavage every day
  body weight: 37.50 ± 4.80 g
[3]; 30 mg/Kg
  reduction of body weight increasing rate as compared with the high fat diet group: 12.9%
  ALT: 17.61 ± 3.90 U/l
  AST: 32.33 ± 2.85 U/l
  TC: 171.86 ± 40.58 mg/dL
  TG: 170.63 ± 13.22 mg/dL
  attenuated the increased ALT as compared with the high fat diet group: ~48.96%
  attenuated the increased AST as compared with the high fat diet group: ~74.17%
  attenuated the increased TC as compared with the high fat diet group: ~86.26%
  attenuated the increased TG as compared with the high fat diet group: ~21.96%
  MDA level increasing rate in liver: 90.1%
  Malondiadehyde in liver: 1.35 ± 0.57
  Plasma insulin: 1.25 ± 0.71 ng/mL
  attenuated the increased blood sugar as compared with the high fat diet group: about 79.48%
  blood glucose: 298.60 ± 38.93 mg/dL
  liver hypertrophy: significantly inhibited
  liver weight: 1.05 ± 0.24 g
  plasma insulin level increasing rate was reduced by: 176.3%
  Plasma insulin increasing rate: 127.3%
  body weight increasing rate: 22.2%
[3]; [4]
  lipid droplets in the liver, hematoxylin-eosin staining of liver sections: significantly attenuated
[3]; [5]
  lipid droplets in the liver, hematoxylin-eosin staining of liver sections: significantly attenuated
[3]; [6]
  MDA level increasing rate was reduced by: 86%
[3]; [7]
  MDA level increasing rate was reduced by: 136.7%
[3]
  liver appearance: pale color (phenomenon of fatty liver): not observed
Hep G2 cells [2]
  cytotoxicity to Hep G2 cells: no cytotoxicity
